Assay results: paper PMC4887995, “Small molecule dual-inhibitors of TRPV4 and TRPA1 for attenuation of inflammation and pain” (Scientific Reports, 2016)

Columns and labels:
[1] = test system: formalin-evoked trigeminal irritant pain (TRPA1 contribution); assay: Trigeminal formalin irritant pain model, Trpv4-/- mice; type: in vivo, mouse; conditions: 10 mg/kg i.p.; for late-phase pain behavior: vs vehicle
Procedure: Figure 7 16-8 and 16-19 effectively attenuate formalin-evoked trigeminal irritant pain. (A) Time-course of nocifensive behavior in WT mice following whisker-pad injection of 4% formalin. The mice were pre-injected (i.p., 10 mg/kg; 15 min before formalin) with GSK205, 16-8 or 16-19. Note effective reduction of nocifensive behavior in the late “neural” phase by compounds 16-8, 16-19, not by GSK205. (B) Cumulative response binned into 3 phases: acute phase (0–5 min), interphase (5–15 min), and late “neural” phase (15–45 min). […] (C) As in (A), but also including Trpv4^−/− mice. Compounds were applied i.p. 15 min before formalin challenge, at 10 mg/kg except established TRPA1 blocker, A967079 (25 mg/kg). Previously-established attenuated nocifensive behavior in early and late phase in Trpv4^−/− mice was recapped, which was reduced further by TRPA1 blocker, A967079. (D) As in (B), plus inclusion of Trpv4^−/− mice. Robust effects of TRPA1-blocker, A967079, were mimicked equi-potently by 16-8 and 16-19 for early phase, and by 16-8 for late phase, partially by 16-19 for late phase. (A,C) show averaged behavioral metrics per time-point, bars in (B,D) represent mean ± SEM; for (D) ^*P < 0.05; ^#P < 0.005, one-way ANOVA; for all panels n = 5–8 mice/group. […] We observed significant residual irritant-pain behavior in all phases of the formalin model in Trpv4^−/− mice, consistent with our previous report[13] (Fig. 7C,D). […] A reference TRPA1-inhibitory compound, A967079, was used at 25 mg/kg body weight as a positive control to inhibit TRPA1, based on a previous report. Reduction of pain behavior in Trpv4^−/− mice was striking, more than 50% in the late neural phase. […] We conclude that compound 16-8 also functions as a potent TRPA1-inhibitor in an in-vivo irritant pain model specifically designed to assess the contribution of TRPA1 to trigeminal irritant pain, and at least as potent as an established reference TRPA1-antagonistic compound. Implementation of this model was conducted as described previously. Video-taped nocifensive behavior was assessed by investigators blinded to genotype and treatment.

TRPV4 = TRPV4 (Rattus norvegicus, UniProt Q9ERZ8); assay: Patch-clamp recording of TRPV4-mediated currents in TRPV4-GFP+ N2a cells; type: cell-based; design: expressed in transfected cells; host or cells: N2a (mouse neuroblastoma) cells; conditions: 5 μM, 5 min pre-incubation, GSK101 5 nM, current densities at −100mV/+100 mV
Procedure: Figure 3 TRPV4 channel inhibition by compounds 16-8 and 16-19 – patch-clamp e-phys. (A) Current-voltage relationship of TRPV4-mediated currents after activation with 5 nM GSK101. Recordings were performed in TRPV4-GFP+ N2a cells. The representative traces represent an average of ≈12 sweeps. In all experiments, cells were pre-incubated with the respective compound (5 μM) for 5 minutes.
Heterologously transfected N2a cells were subjected to patch clamp electrophysiological recordings. Briefly, 24 h after transfection cells were prewashed with extracellular fluid (ECF) which contained (in mM) 1 MgCl2, 10 Glucose, 10 HEPES, 145 NaCl and 2 CaCl2 (pH 7.4, 310mOsM). Cells were then incubated with or without TRPV4 inhibitors in ECF for 5 min before whole cell recording. Cover slips were transferred to a recording chamber mounted on the stage of a Leica inverted microscope that was equipped with fluorescent filters. Transfected cells were identified before patching by their green florescent color. Cells were patched with a 2.5–3.0 MΩ glass electrode pulled from borosilicate glass capillaries using pipette puller (Sutter instruments). […] Whole cell currents were recorded using pclamp 9.2 software and Axopatch 200B amplifier (Molecular Devices). […] Capacitance was monitored throughout the experimental recordings. […]

Chain of TRPV4 (Q9ERZ8 whole entry): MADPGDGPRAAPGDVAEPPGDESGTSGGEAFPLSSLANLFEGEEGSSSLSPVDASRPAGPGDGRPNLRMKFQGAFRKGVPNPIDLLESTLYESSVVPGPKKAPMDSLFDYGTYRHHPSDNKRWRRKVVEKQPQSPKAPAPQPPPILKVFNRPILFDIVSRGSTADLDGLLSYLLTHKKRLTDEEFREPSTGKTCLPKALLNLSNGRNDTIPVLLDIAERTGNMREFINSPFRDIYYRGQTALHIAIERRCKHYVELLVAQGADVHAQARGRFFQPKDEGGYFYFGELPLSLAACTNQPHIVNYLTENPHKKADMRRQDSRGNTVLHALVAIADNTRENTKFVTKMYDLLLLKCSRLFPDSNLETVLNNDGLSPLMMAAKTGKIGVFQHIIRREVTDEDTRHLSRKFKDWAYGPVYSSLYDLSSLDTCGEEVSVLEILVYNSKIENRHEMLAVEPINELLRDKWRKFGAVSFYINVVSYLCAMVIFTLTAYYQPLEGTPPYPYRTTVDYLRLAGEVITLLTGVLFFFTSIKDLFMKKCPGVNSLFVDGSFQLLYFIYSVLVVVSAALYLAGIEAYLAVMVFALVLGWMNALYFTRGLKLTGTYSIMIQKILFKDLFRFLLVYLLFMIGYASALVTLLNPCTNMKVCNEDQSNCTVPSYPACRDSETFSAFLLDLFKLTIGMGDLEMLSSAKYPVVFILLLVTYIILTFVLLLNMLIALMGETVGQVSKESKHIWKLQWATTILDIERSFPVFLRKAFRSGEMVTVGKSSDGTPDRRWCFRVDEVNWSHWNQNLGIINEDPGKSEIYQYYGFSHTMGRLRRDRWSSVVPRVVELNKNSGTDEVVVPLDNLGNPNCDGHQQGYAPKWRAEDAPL

Compound	immediate-phase pain behavior [1]	late-phase pain behavior [1]	attenuation of TRPV4-mediated currents (TRPV4)
CCN(CCc1ccc(Nc2nc(-c3ccccc3)cs2)cc1)Cc1ccccc1 [16-19]	virtually eliminated	still significantly reduced	significantly increased potency
CN(CCc1ccc(Nc2nc(-c3ccccc3)cs2)cc1)Cc1ccccc1 [16-8]	virtually eliminated	strikingly reduced	significantly increased potency
